Measured values published in patent US8802597B2, “Herbicidal pyrimidines” (E I du Pont de Nemours and Company, priority 2003, dated 2014).

Legend:
Type in all cases: in vivo
[1] = system: duck salad (Heteranthera limosa); assay: Test B flooded paddy test; conditions: Flood, 1000 g ai/ha; scale 0 to 100
Summary of the method: (§1)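 Rice, umbrella sedge, duck salad and barnyardgrass grown to 2-leaf stage under flooded paddy conditions and treated with formulated test chemicals. Kept in greenhouse 13–15 days, then visually rated against untreated controls on a 0–100 scale (0 no effect, 100 complete control).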

[2] = system: umbrella sedge (Cyperus difformis); assay: Test B flooded paddy test; conditions: Flood, 1000 g ai/ha; scale 0 to 100
Summary of the method: as §1

[3] = system: barnyardgrass (Echinochloa crus-galli); assay: Test B flooded paddy test; conditions: Flood, 1000 g ai/ha; scale 0 (no effect) to 100 (complete control)
Summary of the method: as §1

rice (Oryza sativa) = assay: Test B flooded paddy test; conditions: Flood, 1000 g ai/ha; scale 0 to 100
Summary of the method: as §1

[4] = system: blackgrass (Alopecurus myosuroides); assay: Test B postemergence; conditions: for Blackgrass plant response rating: 125 g ai/ha, scale 0 to 100 (0 no effect, 100 complete control); for Plant response rating, Blackgrass: 500 g ai/ha, scale 0 to 100
Summary of the method: (§2)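 Test chemicals in a non-phytotoxic solvent mixture with surfactant were applied preemergence to planted seeds and postemergence to plants 2 to 18 cm tall (1- to 4-leaf stage). After 13 to 15 days in a greenhouse, injury was visually rated against untreated controls on a 0 to 100 scale.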

wild oat (Avena fatua) = assay: Test B postemergence; conditions: for Oat, Wild plant response rating: 125 g ai/ha, scale 0 to 100 (0 no effect, 100 complete control); for Plant response rating, Oat, Wild: 500 g ai/ha, scale 0 to 100
Summary of the method: as §2

[5] = system: morningglory (Ipomoea coccinea); assay: Test B pre/postemergence
Summary of the method: as §2

[6] = system: velvetleaf (Abutilon theophrasti); assay: Test B pre/postemergence
Summary of the method: as §2

[7] = system: giant foxtail (Setaria faberii); assay: Test B pre/postemergence
Summary of the method: as §2

[8] = system: Surinam grass (Brachiaria decumbens); assay: Test B pre/postemergence
Summary of the method: as §2

[9] = system: cocklebur (Xanthium strumarium); assay: Test B pre/postemergence
Summary of the method: as §2

[10] = system: lambsquarters (Chenopodium album); assay: Test B pre/postemergence
Summary of the method: as §2

[11] = system: barnyardgrass (Echinochloa crus-galli); assay: Test B pre/postemergence
Summary of the method: as §2

corn (Zea mays) = assay: Test B pre/postemergence
Summary of the method: as §2

[12] = system: pigweed (Amaranthus retroflexus); assay: Test B pre/postemergence
Summary of the method: as §2

[13] = system: crabgrass (Digitaria sanguinalis); assay: Test B pre/postemergence
Summary of the method: as §2

[14] = system: wheat (Triticum aestivum); assay: Test B pre/postemergence
Summary of the method: as §2

[15] = Postemergence, 125 g ai/ha, scale 0 to 100 (0 no effect, 100 complete control)
[16] = Postemergence, 500 g ai/ha, scale 0 to 100
[17] = Preemergence, 125 g ai/ha, scale 0 to 100 (0 no effect, 100 complete control)
[18] = Preemergence, 500 g ai/ha, scale 0 to 100 (0 no effect, 100 complete control)

CNN=Cc1nc(C2CC2)nc(N)c1Br [Compound 49] was tested, and the “Plant response rating, Ducksalad” value [1] was 60, the “Plant response rating, Sedge, Umbrella” value [2] was 70 and the “Plant response rating, Barnyardgrass” value [3] was 50. For the same molecule, the “Plant response rating, Rice” value (rice (Oryza sativa)) was 30, the “Blackgrass plant response rating” value [4] was 20 and the “Plant response rating, Blackgrass” value [4] was 50. The “Oat, Wild plant response rating” value (wild oat (Avena fatua)) was 30, the “Plant response rating, Oat, Wild” value (wild oat (Avena fatua)) was 60 and the “Morningglory plant response rating” value [5, 15] was 90. For the same molecule, the “Plant response rating, Morningglory” value [5, 16] was 100, the “Plant response rating, Morningglory” value [5, 17] was 80 and the “Morningglory plant response rating” value [5, 18] was 100. For the same molecule, the “Velvetleaf plant response rating” value [6, 15] was 50, the “Plant response rating, Velvetleaf” value [6, 16] was 80 and the “Plant response rating, Velvetleaf” value [6, 17] was 80. The “Velvetleaf plant response rating” value [6, 18] was 90, the “Foxtail, Giant plant response rating” value [7, 15] was 10 and the “Plant response rating, Foxtail, Giant” value [7, 16] was 70. The “Plant response rating, Foxtail, Giant” value [7, 17] was 40, the “Foxtail, Giant plant response rating” value [7, 18] was 70 and the “Surinam Grass plant response rating” value [8, 15] was 10. The “Plant response rating, Surinam Grass” value [8, 16] was 60, the “Plant response rating, Surinam Grass” value [8, 17] was 40 and the “Surinam Grass plant response rating” value [8, 18] was 60. The “Cocklebur plant response rating” value [9, 15] was 90, the “Plant response rating, Cocklebur” value [9, 16] was 100 and the “Plant response rating, Cocklebur” value [9, 17] was 80. For the same molecule, the “Cocklebur plant response rating” value [9, 18] was 90, the “Lambsquarters plant response rating” value [10, 15] was 80 and the “Plant response rating, Lambsquarters” value [10, 16] was 90. The “Plant response rating, Lambsquarters” value [10, 17] was 90, the “Lambsquarters plant response rating” value [10, 18] was 100 and the “Barnyardgrass plant response rating” value [11, 15] was 30. For the same molecule, the “Plant response rating, Barnyardgrass” value [11, 16] was 70, the “Plant response rating, Barnyardgrass” value [11, 17] was 30 and the “Barnyardgrass plant response rating” value [11, 18] was 60. For the same molecule, the “Corn plant response rating” value (corn (Zea mays); [15]) was 0, the “Plant response rating, Corn” value (corn (Zea mays); [16]) was 30 and the “Plant response rating, Corn” value (corn (Zea mays); [17]) was 10. The “Corn plant response rating” value (corn (Zea mays); [18]) was 40, the “Pigweed plant response rating” value [12, 15] was 90 and the “Plant response rating, Pigweed” value [12, 16] was 90. The “Plant response rating, Pigweed” value [12, 17] was 90, the “Pigweed plant response rating” value [12, 18] was 100 and the “Crabgrass plant response rating” value [13, 15] was 30. For the same molecule, the “Plant response rating, Crabgrass” value [13, 16] was 80, the “Plant response rating, Crabgrass” value [13, 17] was 80 and the “Crabgrass plant response rating” value [13, 18] was 90. For the same molecule, the “Wheat plant response rating” value [14, 15] was 30, the “Plant response rating, Wheat” value [14, 16] was 40 and the “Plant response rating, Wheat” value [14, 17] was 30. For the same molecule, the “Plant response rating, Wheat” value [14, 18] was 70.
CCOC(=O)C(Cl)(Cl)c1nc(C2CC2)nc(N)c1Br [Compound 34] was tested, and the “Plant response rating, Ducksalad” value [1] was 0, the “Plant response rating, Sedge, Umbrella” value [2] was 0 and the “Plant response rating, Barnyardgrass” value [3] was 0. For the same molecule, the “Plant response rating, Rice” value (rice (Oryza sativa)) was 0, the “Blackgrass plant response rating” value [4] was 60 and the “Plant response rating, Blackgrass” value [4] was 70. The “Oat, Wild plant response rating” value (wild oat (Avena fatua)) was 30, the “Plant response rating, Oat, Wild” value (wild oat (Avena fatua)) was 40 and the “Morningglory plant response rating” value [5, 15] was 60. For the same molecule, the “Plant response rating, Morningglory” value [5, 16] was 70, the “Plant response rating, Morningglory” value [5, 17] was 20 and the “Morningglory plant response rating” value [5, 18] was 70. The “Velvetleaf plant response rating” value [6, 15] was 30, the “Plant response rating, Velvetleaf” value [6, 16] was 60 and the “Plant response rating, Velvetleaf” value [6, 17] was 30. For the same molecule, the “Velvetleaf plant response rating” value [6, 18] was 60, the “Foxtail, Giant plant response rating” value [7, 15] was 20 and the “Plant response rating, Foxtail, Giant” value [7, 16] was 50. For the same molecule, the “Plant response rating, Foxtail, Giant” value [7, 17] was 0, the “Foxtail, Giant plant response rating” value [7, 18] was 20 and the “Surinam Grass plant response rating” value [8, 15] was 10. For the same molecule, the “Plant response rating, Surinam Grass” value [8, 16] was 50, the “Plant response rating, Surinam Grass” value [8, 17] was 10 and the “Surinam Grass plant response rating” value [8, 18] was 50. The “Cocklebur plant response rating” value [9, 15] was 80, the “Plant response rating, Cocklebur” value [9, 16] was 80 and the “Plant response rating, Cocklebur” value [9, 17] was 30. For the same molecule, the “Cocklebur plant response rating” value [9, 18] was 60, the “Lambsquarters plant response rating” value [10, 15] was 70 and the “Plant response rating, Lambsquarters” value [10, 16] was 90. The “Plant response rating, Lambsquarters” value [10, 17] was 50, the “Lambsquarters plant response rating” value [10, 18] was 80 and the “Barnyardgrass plant response rating” value [11, 15] was 0. For the same molecule, the “Plant response rating, Barnyardgrass” value [11, 16] was 60, the “Plant response rating, Barnyardgrass” value [11, 17] was 0 and the “Barnyardgrass plant response rating” value [11, 18] was 0. The “Corn plant response rating” value (corn (Zea mays); [15]) was 0, the “Plant response rating, Corn” value (corn (Zea mays); [16]) was 0 and the “Plant response rating, Corn” value (corn (Zea mays); [17]) was 0. For the same molecule, the “Corn plant response rating” value (corn (Zea mays); [18]) was 0, the “Pigweed plant response rating” value [12, 15] was 50 and the “Plant response rating, Pigweed” value [12, 16] was 80. The “Plant response rating, Pigweed” value [12, 17] was 40, the “Pigweed plant response rating” value [12, 18] was 80 and the “Crabgrass plant response rating” value [13, 15] was 0. The “Plant response rating, Crabgrass” value [13, 16] was 30, the “Plant response rating, Crabgrass” value [13, 17] was 0 and the “Crabgrass plant response rating” value [13, 18] was 70. The “Wheat plant response rating” value [14, 15] was 30, the “Plant response rating, Wheat” value [14, 16] was 40 and the “Plant response rating, Wheat” value [14, 17] was 0. The “Plant response rating, Wheat” value [14, 18] was 10.
With CCCCOC(=O)c1nc(C2CC2)nc(N)c1Br [Compound 16] the “Plant response rating, Ducksalad” value [1] was 90, the “Plant response rating, Sedge, Umbrella” value [2] was 60 and the “Plant response rating, Barnyardgrass” value [3] was 90. For the same molecule, the “Plant response rating, Rice” value (rice (Oryza sativa)) was 70, the “Blackgrass plant response rating” value [4] was 10 and the “Plant response rating, Blackgrass” value [4] was 70. For the same molecule, the “Oat, Wild plant response rating” value (wild oat (Avena fatua)) was 10, the “Plant response rating, Oat, Wild” value (wild oat (Avena fatua)) was 60 and the “Morningglory plant response rating” value [5, 15] was 100. For the same molecule, the “Plant response rating, Morningglory” value [5, 16] was 100, the “Plant response rating, Morningglory” value [5, 17] was 90 and the “Morningglory plant response rating” value [5, 18] was 100. The “Velvetleaf plant response rating” value [6, 15] was 80, the “Plant response rating, Velvetleaf” value [6, 16] was 90 and the “Plant response rating, Velvetleaf” value [6, 17] was 80. For the same molecule, the “Velvetleaf plant response rating” value [6, 18] was 100, the “Foxtail, Giant plant response rating” value [7, 15] was 30 and the “Plant response rating, Foxtail, Giant” value [7, 16] was 80. For the same molecule, the “Plant response rating, Foxtail, Giant” value [7, 17] was 30, the “Foxtail, Giant plant response rating” value [7, 18] was 80 and the “Surinam Grass plant response rating” value [8, 15] was 60. For the same molecule, the “Plant response rating, Surinam Grass” value [8, 16] was 90, the “Plant response rating, Surinam Grass” value [8, 17] was 40 and the “Surinam Grass plant response rating” value [8, 18] was 80. The “Cocklebur plant response rating” value [9, 15] was 90, the “Plant response rating, Cocklebur” value [9, 16] was 100 and the “Plant response rating, Cocklebur” value [9, 17] was 70. The “Cocklebur plant response rating” value [9, 18] was 100, the “Lambsquarters plant response rating” value [10, 15] was 100 and the “Plant response rating, Lambsquarters” value [10, 16] was 100. For the same molecule, the “Plant response rating, Lambsquarters” value [10, 17] was 100, the “Lambsquarters plant response rating” value [10, 18] was 100 and the “Barnyardgrass plant response rating” value [11, 15] was 70. The “Plant response rating, Barnyardgrass” value [11, 16] was 90, the “Plant response rating, Barnyardgrass” value [11, 17] was 30 and the “Barnyardgrass plant response rating” value [11, 18] was 90. The “Corn plant response rating” value (corn (Zea mays); [15]) was 30, the “Plant response rating, Corn” value (corn (Zea mays); [16]) was 80 and the “Plant response rating, Corn” value (corn (Zea mays); [17]) was 30. The “Corn plant response rating” value (corn (Zea mays); [18]) was 70, the “Pigweed plant response rating” value [12, 15] was 90 and the “Plant response rating, Pigweed” value [12, 16] was 100. The “Plant response rating, Pigweed” value [12, 17] was 90, the “Pigweed plant response rating” value [12, 18] was 90 and the “Crabgrass plant response rating” value [13, 15] was 30. For the same molecule, the “Plant response rating, Crabgrass” value [13, 16] was 80, the “Plant response rating, Crabgrass” value [13, 17] was 70 and the “Crabgrass plant response rating” value [13, 18] was 100. For the same molecule, the “Wheat plant response rating” value [14, 15] was 30, the “Plant response rating, Wheat” value [14, 16] was 60 and the “Plant response rating, Wheat” value [14, 17] was 50. For the same molecule, the “Wheat plant response rating” value [14, 18] was 60.
